How the values were obtained:
MCF7 = test: Antiproliferative activity against human MCF7 cells assessed as reduction in cell viability after 48 hrs by MTT assay; format: functional, cell-based; details: MCF7, 48 h
MDA-MB-231 = test: Antiproliferative activity against human MDA-MB-231 cells assessed as reduction in cell viability after 48 hrs by MTT assay; format: functional, cell-based; details: MDA-MB-231, 48 h
PANC-1 [1] = test: Antiproliferative activity against human PANC-1 cells assessed as reduction in cell viability after 48 hrs by MTT assay; format: functional, cell-based; details: PANC-1, 48 h
Caco-2 = test: Antiproliferative activity against human Caco-2 cells assessed as reduction in cell viability after 48 hrs by MTT assay; format: functional, cell-based; details: Caco-2, 48 h
MRC5 = test: Antiproliferative activity against human MRC5 cells assessed as reduction in cell viability after 48 hrs by MTT assay; format: cell-based; details: MRC5, 48 h
PANC-1 [2] = test: Induction of cell cycle arrest in human PANC-1 cells assessed as accumulation of cells at G0/G1 phase at 5 uM incubated for 48 hrs propidium iodide-A staining-based flow cytometric analysis (reference value: 48.58%); format: functional
PANC-1 [3] = test: Induction of cell cycle arrest in human PANC-1 cells assessed as accumulation of cells at S phase at 5 uM incubated for 48 hrs propidium iodide-A staining-based flow cytometric analysis (reference value: 44.71%); format: functional
PANC-1 [4] = test: Induction of cell cycle arrest in human PANC-1 cells assessed as accumulation of cells at G2/M phase at 5 uM incubated for 48 hrs propidium iodide-A staining-based flow cytometric analysis (reference value: 6.71%); format: functional
PANC-1 [5] = test: Induction of cell cycle arrest in human PANC-1 cells assessed as accumulation of cells at G0/G1 phase at 10 uM incubated for 48 hrs propidium iodide-A staining-based flow cytometric analysis (reference value: 48.58%); format: functional
PANC-1 [6] = test: Induction of cell cycle arrest in human PANC-1 cells assessed as accumulation of cells at S phase at 10 uM incubated for 48 hrs propidium iodide-A staining-based flow cytometric analysis (reference value: 44.71%); format: functional
PANC-1 [7] = test: Induction of cell cycle arrest in human PANC-1 cells assessed as accumulation of cells at G2/M phase at 10 uM incubated for 48 hrs propidium iodide-A staining-based flow cytometric analysis (reference value: 6.71%); format: functional
PANC-1 [8] = test: Induction of apoptosis in human PANC-1 cells assessed as viable cells at 5 uM incubated for 48 hrs by annexin V FITC and propidium iodide staining based flow cytometry analysis (reference value: 99.5%); format: functional; details: read-out: Activity
PANC-1 [9] = test: Induction of apoptosis in human PANC-1 cells assessed as early apoptotic cells at 5 uM incubated for 48 hrs by annexin V FITC and propidium iodide staining based flow cytometry analysis (reference value: 0.2%); format: functional
PANC-1 [10] = test: Induction of apoptosis in human PANC-1 cells assessed as late apoptotic cells at 5 uM incubated for 48 hrs by annexin V FITC and propidium iodide staining based flow cytometry analysis (reference value: 0.1%); format: functional
PANC-1 [11] = test: Induction of apoptosis in human PANC-1 cells assessed as necrotic cells at 5 uM incubated for 48 hrs by annexin V FITC and propidium iodide staining based flow cytometry analysis (reference value: 0%); format: functional
PANC-1 [12] = test: Induction of apoptosis in human PANC-1 cells assessed as viable cells at 10 uM incubated for 48 hrs by annexin V FITC and propidium iodide staining based flow cytometry analysis (reference value: 99.5%); format: functional; details: read-out: Activity
PANC-1 [13] = test: Induction of apoptosis in human PANC-1 cells assessed as early apoptotic cells at 10 uM incubated for 48 hrs by annexin V FITC and propidium iodide staining based flow cytometry analysis (reference value: 0.2%); format: functional
PANC-1 [14] = test: Induction of apoptosis in human PANC-1 cells assessed as late apoptotic cells at 10 uM incubated for 48 hrs by annexin V FITC and propidium iodide staining based flow cytometry analysis (reference value: 0.1%); format: functional
PANC-1 [15] = test: Induction of apoptosis in human PANC-1 cells assessed as necrotic cells at 10 uM incubated for 48 hrs by annexin V FITC and propidium iodide staining based flow cytometry analysis (reference value: 0%); format: functional
PANC-1 [16] = test: Induction of apoptosis in human PANC-1 cells assessed as increase in caspase 3 activity; format: functional, cell-based; details: dose 5-10 µM
PANC-1 [17] = test: Induction of apoptosis in human PANC-1 cells assessed as increase in caspase 9 activity; format: functional, cell-based; details: dose 5-10 µM

Row | SMILES | IC50 (MCF7) | IC50 (MDA-MB-231) | IC50 (PANC-1 [1]) | IC50 (Caco-2) | IC50 (MRC5) | also measured
1 | COc1cc2c(cc1OC)-c1n[nH]c(-c3nnc(/C=C/c4ccccc4)o3)c1C2 | 32.9 µM | 11.5 µM | 30.9 µM | 15 µM | 65 µM | –
2 | COc1ccc(/C=C/c2nnc(-c3[nH]nc4c3Cc3cc(OC)ccc3-4)o2)cc1 | 60.2 µM | 16.6 µM | 17.4 µM | 10.6 µM | 54 µM | –
3 | C(=C\c1nnc(-c2[nH]nc3c2Cc2ccccc2-3)o1)/c1ccccc1 | 22.7 µM | 18.7 µM | > 50 µM | 14.8 µM | 45 µM | –
4 | COc1ccc(/C=C/c2nnc(-c3[nH]nc4c3Cc3cc(OC)c(OC)cc3-4)o2)cc1 | 10.1 µM | 25 µM | 27.3 µM | 14.9 µM | 89 µM | –
5 | Fc1ccc2c(c1)Cc1c-2n[nH]c1-c1nnc(/C=C/c2ccccc2)o1 | 60.4 µM | 18 µM | 21.5 µM | 15.9 µM | 66 µM | –
6 | COc1ccc(/C=C/c2nnc(-c3[nH]nc4c3Cc3cc(F)ccc3-4)o2)cc1OC | 18.1 µM | 17.6 µM | 23 µM | 18.7 µM | 58 µM | –
7 | O=[N+]([O-])c1ccc(/C=C/c2nnc(-c3[nH]nc4c3Cc3cc(F)ccc3-4)o2)cc1 | – | 21.9 µM | 16.8 µM | > 100 µM | 89 µM | –
8 | COc1ccc(/C=C/c2nnc(-c3[nH]nc4c3Cc3ccccc3-4)o2)cc1OC | 56.2 µM | 26 µM | 36.4 µM | 22.8 µM | 63 µM | –

Further lines, with some results ahead:

Row | IC50 (MCF7) | IC50 (MDA-MB-231) | IC50 (PANC-1 [1]) | IC50 (Caco-2) | SMILES | IC50 (MRC5) | also measured
9 | 17.1 µM | 13.5 µM | 20.6 µM | 39.7 µM | COc1ccc(/C=C/c2nnc(-c3[nH]nc4c3Cc3ccccc3-4)o2)cc1 | 38 µM | –
10 | 37.2 µM | 18.4 µM | 24.2 µM | 31.7 µM | COc1cc(/C=C/c2nnc(-c3[nH]nc4c3Cc3ccccc3-4)o2)cc(OC)c1OC | 55 µM | –
11 | 41.9 µM | 18.5 µM | 18.3 µM | 17.7 µM | O=[N+]([O-])c1ccc(/C=C/c2nnc(-c3[nH]nc4c3Cc3ccccc3-4)o2)cc1 | 66 µM | –
12 | 63.8 µM | 37.2 µM | 39.9 µM | 15.6 µM | COc1ccc(/C=C/c2nnc(-c3[nH]nc4c3Cc3cc(F)ccc3-4)o2)cc1 | 52 µM | –
13 | 14.4 µM | 13.5 µM | 18.4 µM | 57.4 µM | COc1cc2c(cc1OC)-c1n[nH]c(-c3nnc(/C=C/c4cc(OC)c(OC)c(OC)c4)o3)c1C2 | 77 µM | –
14 | 20.6 µM | 21.3 µM | 7.4 µM | 57.1 µM | COc1ccc2c(c1)Cc1c-2n[nH]c1-c1nnc(/C=C/c2ccc([N+](=O)[O-])cc2)o1 | 41 µM | Activity (PANC-1 [2]): 36.55%; Activity (PANC-1 [3]): 46.6%; Activity (PANC-1 [4]): 17.85%; Activity (PANC-1 [5]): 32.78%; Activity (PANC-1 [6]): 59.87%; Activity (PANC-1 [7]): 7.35%; viability at 5 µM (PANC-1 [8]): 76.7%; Activity (PANC-1 [9]): 1.9%; Activity (PANC-1 [10]): 16.5%; Activity (PANC-1 [11]): 4.6%; viability at 10 µM (PANC-1 [12]): 60.3%; Activity (PANC-1 [13]): 5.5%; Activity (PANC-1 [14]): 27.2%; Activity (PANC-1 [15]): 7.5%; Activity (PANC-1 [16]): Dose-Dependent Effect; Activity (PANC-1 [17]): Dose-Dependent Effect
15 | 14.5 µM | 23.2 µM | > 100 µM | 22.7 µM | COc1ccc(/C=C/c2nnc(-c3[nH]nc4c3Cc3cc(OC)c(OC)cc3-4)o2)cc1OC | 63 µM | –
16 | 20.2 µM | 16.3 µM | 4.3 µM | 20 µM | COc1cc2c(cc1OC)-c1n[nH]c(-c3nnc(/C=C/c4ccc([N+](=O)[O-])cc4)o3)c1C2 | 49 µM | Activity (PANC-1 [2]): 42.09%; Activity (PANC-1 [3]): 53.38%; Activity (PANC-1 [4]): 4.26%; Activity (PANC-1 [5]): 24.94%; Activity (PANC-1 [6]): 73.06%; Activity (PANC-1 [7]): 2%; viability at 5 µM (PANC-1 [8]): 64.1%; Activity (PANC-1 [10]): 27.5%; Activity (PANC-1 [11]): 1.2%; viability at 10 µM (PANC-1 [12]): 52.2%; Activity (PANC-1 [13]): 2.5%; Activity (PANC-1 [14]): 31.2%; Activity (PANC-1 [15]): 10.3%; Activity (PANC-1 [16]): Dose-Dependent Effect; Activity (PANC-1 [17]): Dose-Dependent Effect
17 | 6.1 µM | 8 µM | 4.2 µM | 9.4 µM | Nc1ccn([C@@H]2O[C@H](CO)[C@@H](O)C2(F)F)c(=O)n1 [GEMCITABINE] | 80 µM | –
18 | 44.8 µM | 17.2 µM | 15.5 µM | 16.1 µM | COc1cc(/C=C/c2nnc(-c3[nH]nc4c3Cc3cc(F)ccc3-4)o2)cc(OC)c1OC | 61 µM | –
19 | 67.6 µM | 12.8 µM | 26 µM | 13.1 µM | COc1ccc2c(c1)Cc1c-2n[nH]c1-c1nnc(/C=C/c2ccccc2)o1 | 65 µM | –

Reference: ChEMBL document CHEMBL4834439, “New indenopyrazole linked oxadiazole conjugates as anti-pancreatic cancer agents: Design, synthesis, in silico studies including 3D-QSAR analysis” (Bioorg Med Chem Lett, 2021)
